Assay results taken from ChEMBL document CHEMBL3351667, “A chemical tuned strategy to develop novel irreversible EGFR-TK inhibitors with improved safety and pharmacokinetic profiles” (J Med Chem, 2014).

What was measured:
[1] = molecular target: Epidermal growth factor receptor (Homo sapiens, UniProt P00533, T790M); format: protein assay
[2] = system: NCI-H1975; test: cells; format: functional, cell-based; details: Homo sapiens, NCI-H1975, 48 h
Description: Antiproliferative activity against human NCI-H1975 cells after 48 hrs by Celltiter-Glo assay

[3] = system: A-431; test: cells; format: functional, cell-based; details: Homo sapiens, A-431, 48 h
Description: Antiproliferative activity against human A431 cells after 48 hrs by Celltiter-Glo assay

[4] = molecular target: Receptor tyrosine-protein kinase erbB-2 (Homo sapiens, UniProt P04626); test: Inhibition of wild type HER2 (unknown origin) incubated for 5 mins by HTRF assay
[5] = Cmax in BALB/c mouse at 5 mg/kg, po after 24 hrs by LC/MS/MS method; format: ADME, organism-based; parameters: dose 5 mg/kg, route oral; details: in vivo
[6] = system: Mus musculus; test: AUC (0 to infinity) in BALB/c mouse at 5 mg/kg, po after 24 hrs by LC/MS/MS method; format: ADME, organism-based, Plasma; parameters: time infinity, dose 5 mg/kg, route oral; details: in vivo, 24 h
[7] = Oral bioavailability in BALB/c mouse at 5 mg/kg after 24 hrs by LC/MS/MS method; format: ADME, organism-based; details: in vivo
[8] = system: Mus musculus; test: Apparent volume of distribution in BALB/c mouse at 5 mg/kg, po after 24 hrs by LC/MS/MS method; format: ADME, organism-based; parameters: dose 5 mg/kg, route oral; details: in vivo
[9] = system: Mus musculus; test: Apparent clearance in BALB/c mouse at 5 mg/kg, po after 24 hrs by LC/MS/MS method; format: ADME, organism-based; parameters: dose 5 mg/kg, route oral; details: in vivo, 24 h
[10] = molecular target: Epidermal growth factor receptor (Homo sapiens, UniProt P00533);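 further: inhibition of wild-type EGFR read out by HTRF, with a 5 min incubation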
Description: Inhibition of wild type EGFR (unknown origin) incubated for 5 mins by HTRF assay

[11] = Intrinsic clearance in human liver microsomes assessed per mg protein at 1 uM in presence of NADPH after 0.5 to 30 mins by LC/MS/MS method; format: ADME; details: read-out: CLH
[12] = Intrinsic clearance in mouse liver microsomes assessed per mg protein at 1 uM in presence of NADPH after 0.5 to 30 mins by LC/MS/MS method; format: ADME; details: read-out: CLH
[13] = Intrinsic clearance in monkey liver microsomes assessed per mg protein at 1 uM in presence of NADPH after 0.5 to 30 mins by LC/MS/MS method; format: ADME, Macaca mulatta; details: rhesus monkey, read-out: CLH
[14] = Intrinsic clearance in dog liver microsomes assessed per mg protein at 1 uM in presence of NADPH after 0.5 to 30 mins by LC/MS/MS method; format: ADME, Canis lupus familiaris; details: read-out: CLH
[15] = Intrinsic clearance in rat liver microsomes assessed per mg protein at 1 uM in presence of NADPH after 0.5 to 30 mins by LC/MS/MS method; format: ADME; details: read-out: CLH
[16] = molecular target: T1, hERG (KCNH2) (Homo sapiens, UniProt Q12809); test: Inhibition of human ERG assessed as reduction in channel currents at 0.1 uM
[17] = molecular target: T1, hERG (KCNH2); test: Inhibition of human ERG assessed as reduction in channel currents at 1 uM

Epidermal growth factor receptor (Homo sapiens, UniProt P00533), sequence (P00533 whole entry): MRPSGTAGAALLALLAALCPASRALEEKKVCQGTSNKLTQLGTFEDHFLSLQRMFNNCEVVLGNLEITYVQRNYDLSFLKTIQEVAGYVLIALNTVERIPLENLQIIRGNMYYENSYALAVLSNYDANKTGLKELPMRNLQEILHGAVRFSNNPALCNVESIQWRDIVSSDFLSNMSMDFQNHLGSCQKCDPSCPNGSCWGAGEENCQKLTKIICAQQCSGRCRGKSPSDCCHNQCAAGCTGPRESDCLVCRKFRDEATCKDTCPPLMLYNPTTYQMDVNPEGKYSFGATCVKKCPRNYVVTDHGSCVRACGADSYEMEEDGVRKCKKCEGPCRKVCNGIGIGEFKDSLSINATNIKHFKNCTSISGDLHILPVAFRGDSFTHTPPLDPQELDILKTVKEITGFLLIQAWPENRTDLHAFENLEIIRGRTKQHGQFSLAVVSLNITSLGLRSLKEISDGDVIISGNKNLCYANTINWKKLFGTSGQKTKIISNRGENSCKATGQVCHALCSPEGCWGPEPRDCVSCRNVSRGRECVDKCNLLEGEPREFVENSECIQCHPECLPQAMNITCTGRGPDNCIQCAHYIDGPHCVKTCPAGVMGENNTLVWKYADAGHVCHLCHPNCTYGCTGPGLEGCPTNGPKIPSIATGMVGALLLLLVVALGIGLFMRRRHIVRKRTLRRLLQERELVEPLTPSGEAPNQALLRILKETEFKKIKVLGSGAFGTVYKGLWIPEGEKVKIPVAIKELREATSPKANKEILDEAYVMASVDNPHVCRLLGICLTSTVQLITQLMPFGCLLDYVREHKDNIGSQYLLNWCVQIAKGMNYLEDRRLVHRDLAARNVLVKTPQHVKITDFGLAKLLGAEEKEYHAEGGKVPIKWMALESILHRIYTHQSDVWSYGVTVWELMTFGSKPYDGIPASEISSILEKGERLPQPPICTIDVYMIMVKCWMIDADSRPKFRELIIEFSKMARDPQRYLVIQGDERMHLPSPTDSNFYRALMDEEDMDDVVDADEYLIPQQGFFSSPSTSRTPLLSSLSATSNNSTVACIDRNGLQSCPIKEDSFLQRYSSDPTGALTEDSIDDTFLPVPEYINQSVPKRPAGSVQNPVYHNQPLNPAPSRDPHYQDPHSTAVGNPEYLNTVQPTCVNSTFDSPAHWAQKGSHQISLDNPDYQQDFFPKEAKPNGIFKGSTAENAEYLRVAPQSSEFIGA
Epidermal growth factor receptor (Homo sapiens, UniProt P00533, T790M), sequence (P00533 25-1210 T790M limits assumed): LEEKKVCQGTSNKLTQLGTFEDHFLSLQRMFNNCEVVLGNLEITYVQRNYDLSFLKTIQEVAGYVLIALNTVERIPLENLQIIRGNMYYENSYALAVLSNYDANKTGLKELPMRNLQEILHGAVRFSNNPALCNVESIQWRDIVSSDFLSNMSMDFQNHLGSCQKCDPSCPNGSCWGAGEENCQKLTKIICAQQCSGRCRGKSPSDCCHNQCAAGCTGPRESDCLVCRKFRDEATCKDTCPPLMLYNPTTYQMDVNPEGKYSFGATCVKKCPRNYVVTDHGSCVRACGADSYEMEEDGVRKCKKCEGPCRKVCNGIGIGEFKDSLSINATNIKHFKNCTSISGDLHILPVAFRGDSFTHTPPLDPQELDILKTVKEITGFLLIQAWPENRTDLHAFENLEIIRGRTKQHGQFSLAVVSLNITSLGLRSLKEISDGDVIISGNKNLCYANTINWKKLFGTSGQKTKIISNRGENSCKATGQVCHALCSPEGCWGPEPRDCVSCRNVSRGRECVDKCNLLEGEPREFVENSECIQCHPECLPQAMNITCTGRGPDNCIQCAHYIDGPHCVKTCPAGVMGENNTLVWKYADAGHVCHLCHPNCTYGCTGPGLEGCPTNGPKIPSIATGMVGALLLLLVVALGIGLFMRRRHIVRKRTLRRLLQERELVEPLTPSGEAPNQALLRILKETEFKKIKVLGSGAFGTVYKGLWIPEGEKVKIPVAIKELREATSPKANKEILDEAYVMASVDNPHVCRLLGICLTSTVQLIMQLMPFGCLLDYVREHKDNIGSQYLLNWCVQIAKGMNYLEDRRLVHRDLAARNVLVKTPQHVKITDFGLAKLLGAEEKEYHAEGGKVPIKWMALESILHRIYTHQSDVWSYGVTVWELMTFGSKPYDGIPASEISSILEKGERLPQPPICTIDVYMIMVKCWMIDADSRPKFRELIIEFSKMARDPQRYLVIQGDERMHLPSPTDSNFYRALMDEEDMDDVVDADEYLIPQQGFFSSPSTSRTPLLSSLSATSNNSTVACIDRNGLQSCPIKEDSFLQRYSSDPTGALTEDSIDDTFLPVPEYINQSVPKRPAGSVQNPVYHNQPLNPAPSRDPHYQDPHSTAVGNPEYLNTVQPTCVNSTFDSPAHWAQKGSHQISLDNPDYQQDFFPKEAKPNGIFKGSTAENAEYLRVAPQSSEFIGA
T1 sequence (Q12809 whole entry): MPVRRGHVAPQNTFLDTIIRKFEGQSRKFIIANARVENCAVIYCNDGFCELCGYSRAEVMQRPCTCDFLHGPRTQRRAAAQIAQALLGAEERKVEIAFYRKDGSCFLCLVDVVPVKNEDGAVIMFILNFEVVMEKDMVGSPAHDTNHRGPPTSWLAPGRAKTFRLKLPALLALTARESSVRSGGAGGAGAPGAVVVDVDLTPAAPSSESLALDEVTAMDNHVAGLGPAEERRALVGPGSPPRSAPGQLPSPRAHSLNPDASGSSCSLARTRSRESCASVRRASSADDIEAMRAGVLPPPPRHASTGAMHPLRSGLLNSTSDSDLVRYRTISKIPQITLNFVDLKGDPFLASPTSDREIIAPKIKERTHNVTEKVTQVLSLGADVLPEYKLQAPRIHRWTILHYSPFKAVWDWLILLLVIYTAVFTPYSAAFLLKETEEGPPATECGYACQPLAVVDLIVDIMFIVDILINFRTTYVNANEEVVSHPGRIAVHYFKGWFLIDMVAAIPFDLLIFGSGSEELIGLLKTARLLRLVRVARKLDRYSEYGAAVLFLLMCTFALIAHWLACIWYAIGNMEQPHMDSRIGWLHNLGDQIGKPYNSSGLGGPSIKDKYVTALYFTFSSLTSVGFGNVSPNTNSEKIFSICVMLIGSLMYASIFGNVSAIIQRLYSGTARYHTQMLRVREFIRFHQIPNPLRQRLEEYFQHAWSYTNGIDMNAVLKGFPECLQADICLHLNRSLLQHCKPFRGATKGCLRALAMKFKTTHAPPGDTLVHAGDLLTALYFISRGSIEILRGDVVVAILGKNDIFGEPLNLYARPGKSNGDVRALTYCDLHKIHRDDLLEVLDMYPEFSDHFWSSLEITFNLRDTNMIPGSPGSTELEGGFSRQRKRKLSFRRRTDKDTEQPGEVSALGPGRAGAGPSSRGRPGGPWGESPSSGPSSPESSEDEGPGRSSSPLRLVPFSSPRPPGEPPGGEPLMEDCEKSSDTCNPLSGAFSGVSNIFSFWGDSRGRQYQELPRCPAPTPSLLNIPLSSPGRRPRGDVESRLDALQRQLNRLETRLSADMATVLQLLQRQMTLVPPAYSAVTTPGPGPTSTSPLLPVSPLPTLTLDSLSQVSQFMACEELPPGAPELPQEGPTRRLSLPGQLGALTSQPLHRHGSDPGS
Receptor tyrosine-protein kinase erbB-2, sequence (P04626 whole entry): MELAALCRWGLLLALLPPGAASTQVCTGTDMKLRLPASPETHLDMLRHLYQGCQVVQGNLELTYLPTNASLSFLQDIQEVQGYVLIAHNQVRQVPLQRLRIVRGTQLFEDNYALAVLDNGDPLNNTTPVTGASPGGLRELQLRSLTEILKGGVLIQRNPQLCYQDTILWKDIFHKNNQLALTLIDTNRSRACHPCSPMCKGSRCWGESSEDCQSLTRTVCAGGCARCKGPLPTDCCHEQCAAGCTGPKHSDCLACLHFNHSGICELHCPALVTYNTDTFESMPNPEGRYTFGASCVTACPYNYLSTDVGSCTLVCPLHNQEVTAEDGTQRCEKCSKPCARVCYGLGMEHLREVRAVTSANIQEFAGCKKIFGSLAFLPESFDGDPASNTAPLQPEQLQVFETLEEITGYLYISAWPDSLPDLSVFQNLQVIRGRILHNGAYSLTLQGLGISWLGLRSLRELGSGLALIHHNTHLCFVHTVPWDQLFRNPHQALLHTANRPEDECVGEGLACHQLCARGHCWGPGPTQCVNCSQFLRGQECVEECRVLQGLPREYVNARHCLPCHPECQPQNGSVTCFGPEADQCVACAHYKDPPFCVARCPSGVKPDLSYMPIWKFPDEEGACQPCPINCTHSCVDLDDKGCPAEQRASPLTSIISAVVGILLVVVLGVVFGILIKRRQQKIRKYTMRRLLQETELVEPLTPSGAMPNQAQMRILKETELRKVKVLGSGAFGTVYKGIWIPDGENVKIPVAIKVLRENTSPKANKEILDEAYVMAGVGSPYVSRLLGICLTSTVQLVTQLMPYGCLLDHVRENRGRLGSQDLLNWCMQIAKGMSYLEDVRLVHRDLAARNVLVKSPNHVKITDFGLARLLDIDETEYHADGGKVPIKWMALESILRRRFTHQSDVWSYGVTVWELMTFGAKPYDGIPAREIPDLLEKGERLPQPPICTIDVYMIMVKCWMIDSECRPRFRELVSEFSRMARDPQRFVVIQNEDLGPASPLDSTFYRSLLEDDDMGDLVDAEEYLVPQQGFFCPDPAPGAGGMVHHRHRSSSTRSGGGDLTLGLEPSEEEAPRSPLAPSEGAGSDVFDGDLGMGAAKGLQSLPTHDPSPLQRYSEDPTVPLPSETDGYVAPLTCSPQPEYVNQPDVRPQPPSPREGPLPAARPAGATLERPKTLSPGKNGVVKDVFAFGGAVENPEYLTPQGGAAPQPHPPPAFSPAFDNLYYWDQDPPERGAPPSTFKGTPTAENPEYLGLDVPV

Row | SMILES | IC50 [2] [nM] | IC50 [3] [nM] | IC50 [10] [nM] | also measured
1 | COc1cc2ncnc(Nc3ccc(F)c(Cl)c3)c2cc1NC(=O)/C(F)=C/CN1CCOCC1 | 2020 | 2630 | – | IC50 [1]: 59.8 nM; IC50 [4]: 1540 nM
2 | COc1cc2ncnc(Nc3ccc(F)c(Cl)c3)c2cc1NC(=O)/C(F)=C\CN1CCCCC1 | 1010 | – | – | Cmax [5]: 90 nM; AUC [6]: 14.7 µM·min; bioavailability [7]: 16.5%; Vz [8]: 12.2 L/kg; CL(app) [9]: 0.12 L/min/kg
3 | COc1cc2ncnc(Nc3cccc(Br)c3)c2cc1NC(=O)/C(F)=C\CN(C)C | 4100 | 1200 | 5 | –
4 | CCOc1cc2ncnc(Nc3ccc(Oc4ccc(C)nc4)c(Cl)c3)c2cc1NC(=O)/C(F)=C/CN(C)C | 2490 | 1670 | 4.5 | IC50 [1]: 7.1 nM
5 | C=CC(=O)Nc1cc2c(Nc3ccc(F)c(Cl)c3)ncnc2cc1OCCCN1CCOCC1 [CANERTINIB] | – | – | – | microsomal CLint at 1 µM [11]: 50 µL/min/mg; microsomal CLint at 1 µM [12]: 5 µL/min/mg; microsomal CLint at 1 µM [13]: 221 µL/min/mg; microsomal CLint at 1 µM [14]: 26 µL/min/mg; microsomal CLint at 1 µM [15]: 105 µL/min/mg
6 | COc1cc2ncnc(Nc3ccc(OCc4cccc(F)c4)c(Cl)c3)c2cc1NC(=O)/C(F)=C\CN(C)C | 2000 | 1690 | 1.3 | –
7 | COc1cc(N)c(Cl)cc1C(=O)NC1CCN(CCCOc2ccc(F)cc2)CC1OC (stereo not given) [CISAPRIDE] | – | – | – | inhibition at 0.1 µM [16]: 65.5%; inhibition at 1 µM [17]: 92.4%
8 | CCOc1cc2ncnc(Nc3ccc(Oc4ccc(C)nc4)c(Cl)c3)c2cc1NC(=O)/C(F)=C/CN1CCCCC1 | 3600 | 3490 | 12.9 | IC50 [1]: 37.9 nM
9 | CCOc1cc2ncnc(Nc3ccc(OCC4CC4)c(Cl)c3)c2cc1NC(=O)/C(F)=C\CN(C)C | 2980 | 1340 | 11.2 | –
10 | CCOc1cc2ncnc(Nc3ccc(Oc4ccc(C)nc4)c(Cl)c3)c2cc1NC(=O)/C(F)=C\CN(C)C | 2940 | 5900 | 9.5 | –
11 | COc1cc2ncnc(Nc3ccc(F)c(Cl)c3)c2cc1NC(=O)/C(F)=C\CN1CCOCC1 | 1110 | 830 | – | –
12 | CCOc1cc2ncnc(Nc3ccc(OCc4ccccn4)c(Cl)c3)c2cc1NC(=O)/C(F)=C\CN(C)C | 1130 | – | – | –
